Like-named read-outs stand apart in the source and are kept apart here.

What all share (assay type): binding
One test deals with T1, 5HT1A (Homo sapiens, UniProt P08908).
T1 sequence (P08908 1-422): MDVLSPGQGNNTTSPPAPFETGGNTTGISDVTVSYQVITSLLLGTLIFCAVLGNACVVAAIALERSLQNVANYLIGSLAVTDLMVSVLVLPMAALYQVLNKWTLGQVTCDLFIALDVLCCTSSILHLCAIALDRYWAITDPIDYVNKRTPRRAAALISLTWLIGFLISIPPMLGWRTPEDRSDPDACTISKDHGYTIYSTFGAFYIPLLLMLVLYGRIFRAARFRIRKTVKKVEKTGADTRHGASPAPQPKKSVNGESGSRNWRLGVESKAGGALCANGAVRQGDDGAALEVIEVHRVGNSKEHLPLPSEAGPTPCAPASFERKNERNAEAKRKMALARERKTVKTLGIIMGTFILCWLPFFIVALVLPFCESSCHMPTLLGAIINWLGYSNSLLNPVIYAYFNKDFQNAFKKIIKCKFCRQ
Description: pKi of test compounds, 5HT1A receptor.

The target of the next test is T2, Alpha1A (Homo sapiens, UniProt P35348).
T2 sequence (P35348 1-466): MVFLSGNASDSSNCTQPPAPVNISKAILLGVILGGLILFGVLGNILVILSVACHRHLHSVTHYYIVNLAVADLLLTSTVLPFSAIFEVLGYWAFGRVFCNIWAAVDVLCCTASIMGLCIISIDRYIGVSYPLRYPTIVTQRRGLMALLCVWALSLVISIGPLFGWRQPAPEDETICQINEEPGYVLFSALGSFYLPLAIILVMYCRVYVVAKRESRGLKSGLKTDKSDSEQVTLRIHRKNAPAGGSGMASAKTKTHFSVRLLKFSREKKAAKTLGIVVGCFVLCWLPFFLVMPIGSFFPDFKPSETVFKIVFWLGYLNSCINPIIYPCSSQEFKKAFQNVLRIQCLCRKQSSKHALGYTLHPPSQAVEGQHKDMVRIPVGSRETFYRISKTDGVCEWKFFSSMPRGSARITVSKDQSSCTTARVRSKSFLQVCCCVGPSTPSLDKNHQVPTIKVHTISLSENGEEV
Description: pKi of test compounds, adrenergic receptor Alpha1A.

In a further test the target is T3, Alpha2A (Homo sapiens, UniProt P08913).
T3 sequence (P08913 1-465): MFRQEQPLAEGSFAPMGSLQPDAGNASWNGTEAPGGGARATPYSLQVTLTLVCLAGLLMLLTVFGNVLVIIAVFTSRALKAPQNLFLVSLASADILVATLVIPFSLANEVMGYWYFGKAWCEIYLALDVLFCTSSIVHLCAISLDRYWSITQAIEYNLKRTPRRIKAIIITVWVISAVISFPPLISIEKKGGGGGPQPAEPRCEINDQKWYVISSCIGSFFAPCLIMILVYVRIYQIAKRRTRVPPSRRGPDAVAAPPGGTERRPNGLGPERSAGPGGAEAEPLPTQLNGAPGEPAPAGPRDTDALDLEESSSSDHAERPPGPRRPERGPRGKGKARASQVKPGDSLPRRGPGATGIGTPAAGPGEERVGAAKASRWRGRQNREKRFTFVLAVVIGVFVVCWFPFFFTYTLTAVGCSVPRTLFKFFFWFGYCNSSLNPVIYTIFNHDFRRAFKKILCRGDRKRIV
Description: pKi of test compounds, adrenergic receptor Alpha2A.

For a further test, the target named is 5-HT2A receptor (Homo sapiens, UniProt P28223). The experiment in a line: pKi of test compounds, 5-HT2A receptor.
A further test concerns the target D2 (Homo sapiens, UniProt P14416). The experiment in a line: pKi of test compounds, D2 receptor.
Another test addresses T4, 5HT2C (Homo sapiens, UniProt P28335).
T4 sequence (P28335 33-458): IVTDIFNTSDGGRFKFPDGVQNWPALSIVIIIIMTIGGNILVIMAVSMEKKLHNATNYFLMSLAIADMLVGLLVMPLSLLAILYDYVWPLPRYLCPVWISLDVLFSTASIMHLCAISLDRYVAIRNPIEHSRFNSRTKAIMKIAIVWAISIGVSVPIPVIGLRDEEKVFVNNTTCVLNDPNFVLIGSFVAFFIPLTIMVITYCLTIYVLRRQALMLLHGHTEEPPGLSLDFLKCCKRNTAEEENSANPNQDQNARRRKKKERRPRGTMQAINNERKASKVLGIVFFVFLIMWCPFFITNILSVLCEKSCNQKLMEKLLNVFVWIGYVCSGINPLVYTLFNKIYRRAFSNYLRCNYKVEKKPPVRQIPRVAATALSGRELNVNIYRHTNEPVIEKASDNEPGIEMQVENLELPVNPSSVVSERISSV
The experiment in a line: pKi of test compounds, 5HT2C receptor.

The next test concerns the target D1 (Homo sapiens, UniProt P21728). The experiment in a line: pKi of test compounds, D1 receptor.
The next test concerns the target D3 (Homo sapiens, UniProt P35462). The experiment in a line: pKi of test compounds, D3 receptor.
The target of another test is 5HT1E (Homo sapiens, UniProt P28566). Description: pKi of test compounds, 5HT1E receptor.
The target in another test is T5, D4 receptor (Homo sapiens, UniProt P21917).
T5 sequence (P21917 1-419): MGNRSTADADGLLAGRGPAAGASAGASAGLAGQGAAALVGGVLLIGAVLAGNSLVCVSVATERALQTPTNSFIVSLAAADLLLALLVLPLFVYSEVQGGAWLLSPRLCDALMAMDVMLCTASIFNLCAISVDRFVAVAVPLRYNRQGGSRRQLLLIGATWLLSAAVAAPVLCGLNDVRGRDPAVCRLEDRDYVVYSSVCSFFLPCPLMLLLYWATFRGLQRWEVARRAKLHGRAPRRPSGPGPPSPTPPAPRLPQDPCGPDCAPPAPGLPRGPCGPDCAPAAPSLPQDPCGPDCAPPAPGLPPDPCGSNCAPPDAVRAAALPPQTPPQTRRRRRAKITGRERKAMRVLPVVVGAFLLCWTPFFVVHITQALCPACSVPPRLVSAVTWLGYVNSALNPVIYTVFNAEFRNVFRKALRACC
The experiment in a line: pKi of test compounds, D4 receptor.

Another test deals with 5HT1D (Homo sapiens, UniProt P28221). The experiment in a line: pKi of test compounds, 5HT1D receptor.
Another test concerns the target 5HT1B (Homo sapiens, UniProt P28222). The experiment in a line: pKi of test compounds, 5HT1B receptor.
In a further test the target is 5HT2B (Homo sapiens, UniProt P41595). The experiment in a line: pKi of test compounds, 5HT2B receptor.
For the next test, the target named is 5HT7rat (Rattus norvegicus, UniProt P32305). The experiment in a line: pKi of test compounds, 5HT7 receptor.
The target of a further test is Beta2 (Homo sapiens, UniProt P07550). Description: pKi of test compounds, adrenergic receptor Beta2.
Another test addresses 5HT6rat (Rattus norvegicus, UniProt P31388). Description: pKi of test compounds, 5HT6 receptor.
Another test addresses Beta1 (Homo sapiens, UniProt P08588). The experiment in a line: pKi of test compounds, adrenergic receptor Beta1.
Where [1] appears, read: D4, read-out: pKi D4 (converted).
Where [2] appears, read: read-out: pKi 5HT1D (converted).

Chain of 5HT1D (P28221 whole entry, species assumed): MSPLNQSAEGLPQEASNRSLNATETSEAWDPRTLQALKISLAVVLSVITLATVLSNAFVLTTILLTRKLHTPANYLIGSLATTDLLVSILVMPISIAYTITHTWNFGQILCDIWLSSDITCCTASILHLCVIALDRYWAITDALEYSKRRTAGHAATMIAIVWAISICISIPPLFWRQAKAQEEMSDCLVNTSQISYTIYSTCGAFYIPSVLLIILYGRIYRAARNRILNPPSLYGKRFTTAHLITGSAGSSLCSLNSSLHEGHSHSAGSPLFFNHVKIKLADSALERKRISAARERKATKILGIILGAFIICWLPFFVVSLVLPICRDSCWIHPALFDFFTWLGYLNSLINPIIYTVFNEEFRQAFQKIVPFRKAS
Chain of 5-HT2A receptor (P28223 whole entry): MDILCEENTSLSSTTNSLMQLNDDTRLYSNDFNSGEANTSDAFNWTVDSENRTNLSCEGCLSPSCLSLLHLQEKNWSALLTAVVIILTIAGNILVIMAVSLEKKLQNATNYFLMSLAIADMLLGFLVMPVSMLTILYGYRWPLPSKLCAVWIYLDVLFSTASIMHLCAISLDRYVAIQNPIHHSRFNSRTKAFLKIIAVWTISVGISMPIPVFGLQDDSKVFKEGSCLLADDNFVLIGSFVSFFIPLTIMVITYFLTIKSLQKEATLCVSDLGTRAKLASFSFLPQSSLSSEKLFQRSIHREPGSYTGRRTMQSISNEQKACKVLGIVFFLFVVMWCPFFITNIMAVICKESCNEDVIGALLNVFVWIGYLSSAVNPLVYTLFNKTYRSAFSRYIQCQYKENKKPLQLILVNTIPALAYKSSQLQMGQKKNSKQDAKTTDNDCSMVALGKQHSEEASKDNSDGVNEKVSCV
Chain of D3 (P35462 whole entry): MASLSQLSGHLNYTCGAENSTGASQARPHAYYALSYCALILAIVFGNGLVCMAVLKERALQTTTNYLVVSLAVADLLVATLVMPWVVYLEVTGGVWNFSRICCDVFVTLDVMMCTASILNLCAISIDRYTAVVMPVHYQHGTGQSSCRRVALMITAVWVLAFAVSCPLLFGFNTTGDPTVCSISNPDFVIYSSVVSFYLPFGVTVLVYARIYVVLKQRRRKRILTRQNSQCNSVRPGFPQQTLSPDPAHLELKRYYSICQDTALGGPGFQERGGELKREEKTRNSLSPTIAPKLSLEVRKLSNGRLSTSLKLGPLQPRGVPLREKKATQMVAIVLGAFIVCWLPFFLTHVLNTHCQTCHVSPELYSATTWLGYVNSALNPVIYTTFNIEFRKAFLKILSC
Chain of 5HT2B (P41595 whole entry, species assumed): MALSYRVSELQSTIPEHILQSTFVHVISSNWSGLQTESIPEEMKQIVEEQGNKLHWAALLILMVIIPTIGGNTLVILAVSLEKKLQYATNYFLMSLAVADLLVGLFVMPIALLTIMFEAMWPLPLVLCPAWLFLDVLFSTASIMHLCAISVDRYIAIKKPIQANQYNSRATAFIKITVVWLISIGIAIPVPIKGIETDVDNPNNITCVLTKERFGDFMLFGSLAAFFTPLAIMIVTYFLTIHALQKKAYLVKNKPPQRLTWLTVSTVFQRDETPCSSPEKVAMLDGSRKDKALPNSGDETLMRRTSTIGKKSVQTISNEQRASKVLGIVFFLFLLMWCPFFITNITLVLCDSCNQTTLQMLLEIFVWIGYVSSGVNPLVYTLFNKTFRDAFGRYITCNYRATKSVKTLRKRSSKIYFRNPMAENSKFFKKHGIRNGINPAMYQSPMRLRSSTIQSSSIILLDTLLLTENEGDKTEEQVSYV
Chain of D2 (P14416 whole entry): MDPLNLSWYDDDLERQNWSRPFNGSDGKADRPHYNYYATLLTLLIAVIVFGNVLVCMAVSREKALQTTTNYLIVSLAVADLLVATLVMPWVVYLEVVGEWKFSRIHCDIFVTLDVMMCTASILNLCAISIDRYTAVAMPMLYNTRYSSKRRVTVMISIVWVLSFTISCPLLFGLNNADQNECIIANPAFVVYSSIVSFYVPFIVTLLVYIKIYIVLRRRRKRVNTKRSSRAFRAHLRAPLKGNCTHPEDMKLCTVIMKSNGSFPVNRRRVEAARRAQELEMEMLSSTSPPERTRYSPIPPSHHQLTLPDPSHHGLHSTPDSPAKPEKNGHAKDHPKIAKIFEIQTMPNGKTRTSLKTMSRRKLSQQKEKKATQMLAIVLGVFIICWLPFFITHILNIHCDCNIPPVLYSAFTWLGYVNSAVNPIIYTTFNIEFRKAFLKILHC
Chain of 5HT1B (P28222 whole entry, species assumed): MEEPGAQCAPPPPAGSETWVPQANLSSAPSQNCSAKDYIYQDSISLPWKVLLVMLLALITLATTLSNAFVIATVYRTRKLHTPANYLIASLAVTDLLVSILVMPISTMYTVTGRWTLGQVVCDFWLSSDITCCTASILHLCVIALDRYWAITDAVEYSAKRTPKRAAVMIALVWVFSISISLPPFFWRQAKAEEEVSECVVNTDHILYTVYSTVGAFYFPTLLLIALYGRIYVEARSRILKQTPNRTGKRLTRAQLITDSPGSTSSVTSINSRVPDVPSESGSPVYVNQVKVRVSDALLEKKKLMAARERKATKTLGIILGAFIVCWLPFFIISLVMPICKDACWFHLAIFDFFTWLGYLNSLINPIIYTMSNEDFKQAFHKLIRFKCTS
Chain of 5HT1E (P28566 whole entry, species assumed): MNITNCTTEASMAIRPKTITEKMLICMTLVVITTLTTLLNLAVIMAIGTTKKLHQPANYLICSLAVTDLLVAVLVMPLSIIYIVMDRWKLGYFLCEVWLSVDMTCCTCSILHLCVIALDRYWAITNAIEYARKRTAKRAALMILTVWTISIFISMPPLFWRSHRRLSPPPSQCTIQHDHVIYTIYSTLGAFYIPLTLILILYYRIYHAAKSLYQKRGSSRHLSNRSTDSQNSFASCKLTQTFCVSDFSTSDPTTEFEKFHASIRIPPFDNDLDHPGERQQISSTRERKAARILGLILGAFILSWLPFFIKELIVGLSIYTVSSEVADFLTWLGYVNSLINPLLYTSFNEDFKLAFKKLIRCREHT
Chain of D1 (P21728 whole entry): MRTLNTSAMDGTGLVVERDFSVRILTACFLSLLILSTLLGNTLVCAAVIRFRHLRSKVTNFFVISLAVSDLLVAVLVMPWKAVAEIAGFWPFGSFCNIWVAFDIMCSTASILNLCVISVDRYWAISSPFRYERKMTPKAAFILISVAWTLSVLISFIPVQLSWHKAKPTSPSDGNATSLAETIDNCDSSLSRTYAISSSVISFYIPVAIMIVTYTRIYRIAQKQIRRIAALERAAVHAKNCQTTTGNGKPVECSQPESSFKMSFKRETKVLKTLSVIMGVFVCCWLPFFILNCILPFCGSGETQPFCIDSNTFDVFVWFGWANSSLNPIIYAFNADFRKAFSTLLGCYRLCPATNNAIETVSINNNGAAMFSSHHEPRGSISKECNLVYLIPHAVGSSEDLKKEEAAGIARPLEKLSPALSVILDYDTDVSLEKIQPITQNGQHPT
Chain of Beta1 (P08588 whole entry): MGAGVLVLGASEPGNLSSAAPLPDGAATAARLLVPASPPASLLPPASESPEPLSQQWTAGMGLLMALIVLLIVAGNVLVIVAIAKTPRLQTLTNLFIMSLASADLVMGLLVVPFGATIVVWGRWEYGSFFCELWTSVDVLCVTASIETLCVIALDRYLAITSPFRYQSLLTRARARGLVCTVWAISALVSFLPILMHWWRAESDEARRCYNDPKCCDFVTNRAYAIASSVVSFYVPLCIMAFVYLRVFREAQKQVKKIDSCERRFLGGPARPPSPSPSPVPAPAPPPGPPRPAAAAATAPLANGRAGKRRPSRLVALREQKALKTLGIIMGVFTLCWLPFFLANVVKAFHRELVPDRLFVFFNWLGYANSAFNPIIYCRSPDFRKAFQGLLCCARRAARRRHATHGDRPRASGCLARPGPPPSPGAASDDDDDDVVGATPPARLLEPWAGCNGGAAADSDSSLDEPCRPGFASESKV
Chain of 5HT6rat (P31388 whole entry): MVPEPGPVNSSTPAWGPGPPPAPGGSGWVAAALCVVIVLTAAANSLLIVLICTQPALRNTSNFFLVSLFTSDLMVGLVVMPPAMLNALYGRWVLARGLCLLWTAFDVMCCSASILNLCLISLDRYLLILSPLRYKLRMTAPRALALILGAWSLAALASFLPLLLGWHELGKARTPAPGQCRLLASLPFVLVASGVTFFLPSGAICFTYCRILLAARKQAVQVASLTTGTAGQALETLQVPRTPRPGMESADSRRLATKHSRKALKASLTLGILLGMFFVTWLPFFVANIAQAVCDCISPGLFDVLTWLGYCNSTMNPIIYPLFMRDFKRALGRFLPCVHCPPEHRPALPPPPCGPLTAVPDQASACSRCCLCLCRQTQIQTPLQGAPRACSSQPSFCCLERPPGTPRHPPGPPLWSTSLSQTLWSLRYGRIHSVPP
Chain of 5HT7rat (P32305 whole entry): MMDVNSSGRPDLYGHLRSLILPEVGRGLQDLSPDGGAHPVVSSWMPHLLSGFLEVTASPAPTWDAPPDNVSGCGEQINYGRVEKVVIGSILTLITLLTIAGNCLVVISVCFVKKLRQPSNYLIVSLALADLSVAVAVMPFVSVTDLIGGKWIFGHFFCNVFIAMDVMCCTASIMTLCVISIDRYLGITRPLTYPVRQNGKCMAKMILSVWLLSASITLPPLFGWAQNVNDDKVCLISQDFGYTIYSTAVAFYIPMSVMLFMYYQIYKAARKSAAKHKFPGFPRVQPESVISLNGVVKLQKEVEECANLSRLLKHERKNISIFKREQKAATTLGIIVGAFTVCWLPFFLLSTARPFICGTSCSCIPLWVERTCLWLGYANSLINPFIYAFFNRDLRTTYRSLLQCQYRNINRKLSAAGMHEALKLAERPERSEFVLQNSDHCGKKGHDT

In the case of `CCNC(=O)N1CCN(CCCC(c2ccc(F)cc2)c2ccc(F)cc2)CC1` [Amperozide], the Ki is greater than 1 µM at 5HT1A; 0.01 to 0.1 µM at Alpha1A; greater than 1 µM on Alpha2A; 0.001 to 0.01 µM on 5-HT2A receptor; 0.1 to 1 µM on D2 (read-out: pKi D2 (converted)); greater than 1 µM on 5HT2C. The Ki on D1 and on D3 (read-out: pKi D3 (converted)) was 0.1 to 1 µM throughout.

As to `O=C1NCN(c2ccccc2)C12CCN(CCCC(c1ccc(F)cc1)c1ccc(F)cc1)CC2` [Fluspirilene], the Ki on 5HT1E is greater than 1 µM; at D4 receptor (setting [1]) it was 0.001 to 0.01 µM; at 5HT1D (setting [2]), greater than 1 µM; at D2 (read-out: pKi D2 (converted)), less than 0.001 µM; at 5HT1B, greater than 1 µM.

With `OC1(c2ccc(Cl)cc2)CCN(Cc2c[nH]c3ccccc23)CC1` [L741626], on Alpha2A, the “pKi Alpha2A” value is less than 6. Further, at 5HT2B, the “pKi 5HT2B” value is given as 6-7. In addition, the “pKi 5HT1D” value on 5HT1D was less than 6. At 5HT1B, the “pKi 5HT1B” value is less than 6. Besides, the “pKi D3” value at D3 is given as 7-8.

Consider `Cc1nc2c(C)cccn2c(=O)c1CCN1CCC(c2noc3cc(F)ccc23)CC1` [Ocaperidone], for which the Ki at 5HT1A was 0.01 to 0.1 µM; on Alpha1A, less than 0.001 µM; at 5-HT2A receptor it was less than 0.001 µM; at D4 receptor (setting [1]), 0.001 to 0.01 µM; at D2 (read-out: pKi D2 (converted)), less than 0.001 µM; at 5HT2C, 0.01 to 0.1 µM. The Ki on D1 is 0.01 to 0.1 µM; on D3 (read-out: pKi D3 (converted)), 0.001 to 0.01 µM.

Consider `CCN1CCC[C@H]1CNC(=O)c1c(O)c(Cl)cc(Cl)c1OC` [Raciopride], for which the Ki at 5HT1A was greater than 1 µM; at Alpha1A, greater than 1 µM; at Alpha2A it was greater than 1 µM; at 5HT2C, greater than 1 µM; on D1, greater than 1 µM; at D3 (read-out: pKi D3 (converted)), 0.001 to 0.01 µM.

As for `O=C1N(CCN2CCC(c3noc4cc(F)ccc34)CC2)CCN1c1ccccc1` [S18327], the “pKi 5HT1A” value on 5HT1A was 7-8. For the same compound, on Alpha1A, the “pKi Alpha1A” value was greater than 9. Also, the “pKi Alpha2A” value on Alpha2A is listed as 6-7. The “pKi 5-HT2A” value on 5-HT2A receptor is on record as 8-9. In addition, the “pKi D4” value on D4 receptor (D4) is reported as 8-9. For the same compound, the “pKi D2” value on D2 is 7-8. For the same compound, the “pKi 5HT2C” value at 5HT2C is recorded as 6-7. The “pKi D1” value on D1 was 7-8. On D3, the “pKi D3” value is given as 6-7.

With `N#Cc1ccc2c(c1)[C@H]1CN(CCCCNC(=O)c3ccc(-c4ccccc4)cc3)C[C@@H]1CO2` [S33084], the “pKi 5HT1A” value at 5HT1A is given as less than 6. In addition, the “pKi Alpha1A” value on Alpha1A is given as 6-7. In addition, the “pKi Alpha2A” value on Alpha2A is reported as less than 6. Further, the “pKi 5HT2B” value on 5HT2B is 6-7. For the same compound, on 5HT1D, the “pKi 5HT1D” value was 6-7. Further, the “pKi D2” value at D2 is listed as 7-8. In addition, the “pKi 5HT2C” value on 5HT2C is 7-8. At D1, the “pKi D1” value was 6-7. Besides, at 5HT1B, the “pKi 5HT1B” value is on record as 6-7. Further, on D3, the “pKi D3” value was greater than 9.

In turn, `OCCOCCN1CCN(C2=Nc3ccccc3Sc3ccccc32)CC1` [Seroquel] had a Ki on 5HT1E greater than 1 µM.

Regarding `O=C1NCCN1CCN1CCC(c2cn(-c3ccc(F)cc3)c3ccc(Cl)cc23)CC1` [Sertindole], the Ki on Alpha1A was less than 0.001 µM; at 5HT1D (setting [2]) it was 0.01 to 0.1 µM; on D1, 0.01 to 0.1 µM; on 5HT1B, 0.01 to 0.1 µM.

For `O=C1CC2(CCCC2)CC(=O)N1CCCCN1CCN(c2nsc3ccccc23)CC1` [Tiospirone], the Ki was less than 0.001 µM at Alpha1A; 0.1 to 1 µM on Alpha2A; less than 0.001 µM on 5-HT2A receptor; 0.001 to 0.01 µM on D4 receptor; 0.001 to 0.01 µM on D2; 0.001 to 0.01 µM on D3.

Take `COC(=O)[C@@H]1[C@H]2C[C@H]3c4[nH]c5ccccc5c4CCN3C[C@@H]2CC[C@@H]1O` [Yohimbine]: the Ki was 0.01 to 0.1 µM on 5HT1D and 0.1 to 1 µM at D2 (read-out: pKi D2 (converted)).

Consider `O=C1Cc2cc(CCN3CCN(c4nsc5ccccc45)CC3)c(Cl)cc2N1` [Ziprasidone], for which the Ki is 0.001 to 0.01 µM at 5HT1A; 0.1 to 1 µM at 5HT1E; 0.001 to 0.01 µM on 5HT2B; 0.001 to 0.01 µM on 5HT1D (setting [2]); 0.001 to 0.01 µM at 5HT7rat; greater than 1 µM at Beta2. The values for the Ki at 5HT1B, on 5HT6rat and at Beta1 were less than 0.001 µM, 0.01 to 0.1 µM and greater than 1 µM, respectively.

Turning to `CN(C)CCOC1=Cc2ccccc2Sc2ccc(Cl)cc21` [Zotepine], the Ki was 0.1 to 1 µM at 5HT1E, 0.01 to 0.1 µM at 5HT1D (setting [2]) and 0.01 to 0.1 µM at 5HT1B.

Values taken from US20050119253A1, “Method of treating mental disorders using of D4 and 5-HT2A antagonists, inverse agonists or partial agonists” (priority 2003, published 2005).
